# Results from ChEMBL document CHEMBL1150715, “Puupehenone, a cytotoxic metabolite from a deep water marine sponge, Stronglyophora hartmani” (J Nat Prod, 1987).
# How the values were obtained:
# P388 [1] = experiment: Cytotoxicity against mouse P388 cells; format: functional, cell-based
# P388 [2] = experiment: In vivo cytotoxicity against mouse P388 cells at 25 mg/kg administered daily for 9 days relative to control; format: functional
# A549 = experiment: Cytotoxicity against human A549 cells; format: functional, cell-based
# MCF7 = experiment: Cytotoxicity against human MCF7 cells; format: functional, cell-based
# HCT-8 = experiment: Cytotoxicity against human HCT8 cells; format: functional, cell-based
# Candida albicans = experiment: Antifungal activity against Candida albicans; format: functional
smiles,measurement,setting,value
CC1(C)CCC[C@]2(C)[C@H]3C=C4C=C(O)C(=O)C=C4O[C@@]3(C)CC[C@@H]12 [PUUPEHENONE],IC50,P388 [1],1 µg/mL
same,T/C,P388 [2],119%
same,IC50,A549,0.1 µg/mL
same,IC50,MCF7,0.1 µg/mL
same,IC50,HCT-8,1 µg/mL
same,MIC,Candida albicans,3 µg/mL
